Values joined by “and” are separate entries in the source; they are usually repeats but may differ in a detail not shown here. Identical values can stand only once.
Experiments:
[1] = 101.33 kPa, Liquid; for speed of sound: Sing-around technique in a fixed-path interferometer; for mass density: Vibrating tube method; for viscosity: Concentric cylinders viscometry
[2] = refractive index (Na D-line) (dimensionless); settings: 101.33 kPa, Liquid, Standard Abbe refractometry
[3] = xn = mol fraction of the nth substance listed; settings: 100 kPa, Liquid; for speed of sound: Sing-around technique in a fixed-path interferometer; for mass density: Vibrating tube method

OCCO [1,2-ethanediol]
Settings	mass density, [1]	refractive index, [2]	speed of sound, [1] [m/s]	viscosity, [1] [mPa·s]
283.15 K	1120.2 kg/m3	1.43461	1689.9	–
288.15 K	1118.2 kg/m3	1.43312	1678.3	26.8
293.15 K	1114.6 kg/m3 and 1113.3 kg/m3	1.43167	1666.5	21.2
298.15 K	1111.1 kg/m3	1.43	1654.7	17.13
303.15 K	1106.3 kg/m3 and 1107.6 kg/m3	1.42855	1642.9	14
308.15 K	1104.1 kg/m3	–	1631.1	11.58
313.15 K	1099.2 kg/m3 and 1100.5 kg/m3	1.42562	1619.3	9.627
318.15 K	1097 kg/m3	–	–	8.182
323.15 K	1092.1 kg/m3 and 1093.4 kg/m3	1.4226	1595.5	6.98
328.15 K	1089.8 kg/m3	–	–	6.007
333.15 K	1084.8 kg/m3 and 1086.2 kg/m3	1.41955	1571.5	5.197
338.15 K	1082.6 kg/m3	–	–	4.555
343.15 K	1078.9 kg/m3 and 1077.5 kg/m3	1.41655	1547.4	4.01
348.15 K	1075.2 kg/m3	–	–	3.552
353.15 K	1071.5 kg/m3	1.41351	–	3.161
358.15 K	1067.8 kg/m3	–	–	2.835
363.15 K	1064 kg/m3	–	–	2.552
368.15 K	1060.2 kg/m3	–	–	2.306
373.15 K	1056.4 kg/m3	–	–	2.102

OCCO [1,2-ethanediol] + O
[3]
Settings	mass density, x1 = 0.9886 [kg/m3]	mass density, x1 = 0.9943 [kg/m3]	mass density, x1 = 0.9959 [kg/m3]	speed of sound, x1 = 0.9886 [m/s]	speed of sound, x1 = 0.9943 [m/s]	speed of sound, x1 = 0.9959 [m/s]
283.15 K	1119.9	1120.07	1120.11	1690.2	1689	1690.6
288.15 K	1116.43	–	–	1678.4	1678.1	1678.6
293.15 K	1112.94	1113.11	1113.15	1666.6	1666.3	1666.6
298.15 K	1109.46	–	–	1654.7	1654.8	1654.6
303.15 K	1105.95	1106.11	1106.15	1643	1643	1642.7
308.15 K	1102.43	–	–	1631.2	1631.3	1630.9
313.15 K	1098.89	1099.05	1099.1	1619.5	1619.4	1619.1
323.15 K	1091.75	1091.9	1091.95	1595.7	1595.5	1595.2
333.15 K	1084.51	1084.67	1084.72	1571.7	1571.5	1571.2
343.15 K	1077.16	1077.33	1077.37	1547.6	1547.4	1547.1

COCCOCCOCCOCCOC [2,5,8,11,14-pentaoxapentadecane]
Settings	mass density, [1]	refractive index, [2]	speed of sound, [1] [m/s]	viscosity, [1] [mPa·s]
283.15 K	1020.7 kg/m3	1.43599	1439.7	–
288.15 K	1017 kg/m3 and 1016.1 kg/m3	1.43414	1420.3	4.337
293.15 K	1012.3 kg/m3 and 1011.5 kg/m3	1.43196	1401	3.846
298.15 K	1006.8 kg/m3 and 1007.6 kg/m3	1.42992	1382	3.335
303.15 K	1002.2 kg/m3 and 1003.1 kg/m3	1.42777	1363.1	2.967
308.15 K	997.6 kg/m3 and 998.8 kg/m3	–	1344.3	2.66
313.15 K	993 kg/m3 and 994.1 kg/m3	1.42373	1325.6	2.389
318.15 K	989.5 kg/m3	–	–	2.183
323.15 K	983.7 kg/m3 and 984.9 kg/m3	1.41973	1289.1	1.995
328.15 K	980.2 kg/m3	–	–	1.832
333.15 K	974.5 kg/m3 and 975.6 kg/m3	1.41578	1253.4	1.677
338.15 K	971 kg/m3	–	–	1.566
343.15 K	966.5 kg/m3 and 965.3 kg/m3	1.41174	1218.5	1.456
348.15 K	961.9 kg/m3	–	–	1.358
353.15 K	957.3 kg/m3	1.40773	–	1.25
358.15 K	952.7 kg/m3	–	–	1.188
363.15 K	948.1 kg/m3	–	–	1.115
368.15 K	943.5 kg/m3	–	–	1.047
373.15 K	938.9 kg/m3	–	–	0.978

Source: the NIST ThermoML archive (doi:10.1021/acs.jced.5b00662)
